pIC50: −log10 of the molar value.

For experiment [1], the target named is PI3Kγ (p110γ) Recombinant Human Protein (Homo sapiens (Human), UniProt P48736). Put plainly: PI3K-γ Scintillation Proximity Assay. It counts as biochemical. The conditions noted are these: 20 μM PIP2, 2 μM ATP, 13 nM PI3Kγ, 120 min, room temperature. The text has this: Example B. PI3K-γ Scintillation Proximity Assay Materials: [γ-^33P]ATP (10 mCi/mL) and Wheat Germ Agglutinin (WGA) YSi SPA Scintillation Beads was purchased from Perkin Elmer (Waltham, MA). Lipid kinase substrate, D-myo-Phosphatidylinositol 4,5-bisphosphate (PtdIns(4,5)P2)D (+)-sn-1,2-di-O-octanoylglyceryl, 3-O-phospho linked (PIP2), CAS 204858-53-7, was purchased from Echelon Biosciences (Salt Lake City, UT). PI3Kγ (p110γ) Recombinant Human Protein was purchased from Life technology (Grand Island, NY). ATP, MgCl2, DTT, EDTA, MOPS and CHAPS were purchased from Sigma Aldrich (St. Louis, MO). The kinase reaction was conducted in polystyrene 384-well Greiner Bio-one white plate from Thermo Fisher Scientific in a final volume of 25 μL. Inhibitors were first diluted serially in DMSO and added to the plate wells before the addition of other reaction components. The final concentration of DMSO in the assay was 2%. The PI3Kγ assay was carried out at room temperature in 20 mM MOPS, pH 6.7, 10 mM MgCl2, 5 mM DTT and CHAPS 0.03%. Reactions were initiated by the addition of ATP, the final reaction mixture consisted of 20 μM PIP2, 2 μM ATP, 0.5 μCi [γ-^33P] ATP, 13 nM PI3Kγ. Reactions were incubated for 120 min and terminated by the addition of 40 μL SPA beads suspended in quench buffer: 163 mM potassium phosphate pH 7.8, 20% glycerol, 25 mM EDTA. The final concentration of SPA beads is 1.0 mg/mL. After the plate sealing, plates were shaken overnight at room temperature and centrifuged at 1500 rpm for 10 min, the radioactivity of the product was determined by scintillation counting on Topcount (Perkin-Elmer). IC50 determination was performed by fitting the curve of percent of the solvent control activity versus the log of the inhibitor concentration using the GraphPad Prism 6.0 software.
Sequence of PI3Kγ (p110γ) Recombinant Human Protein (P48736 whole entry): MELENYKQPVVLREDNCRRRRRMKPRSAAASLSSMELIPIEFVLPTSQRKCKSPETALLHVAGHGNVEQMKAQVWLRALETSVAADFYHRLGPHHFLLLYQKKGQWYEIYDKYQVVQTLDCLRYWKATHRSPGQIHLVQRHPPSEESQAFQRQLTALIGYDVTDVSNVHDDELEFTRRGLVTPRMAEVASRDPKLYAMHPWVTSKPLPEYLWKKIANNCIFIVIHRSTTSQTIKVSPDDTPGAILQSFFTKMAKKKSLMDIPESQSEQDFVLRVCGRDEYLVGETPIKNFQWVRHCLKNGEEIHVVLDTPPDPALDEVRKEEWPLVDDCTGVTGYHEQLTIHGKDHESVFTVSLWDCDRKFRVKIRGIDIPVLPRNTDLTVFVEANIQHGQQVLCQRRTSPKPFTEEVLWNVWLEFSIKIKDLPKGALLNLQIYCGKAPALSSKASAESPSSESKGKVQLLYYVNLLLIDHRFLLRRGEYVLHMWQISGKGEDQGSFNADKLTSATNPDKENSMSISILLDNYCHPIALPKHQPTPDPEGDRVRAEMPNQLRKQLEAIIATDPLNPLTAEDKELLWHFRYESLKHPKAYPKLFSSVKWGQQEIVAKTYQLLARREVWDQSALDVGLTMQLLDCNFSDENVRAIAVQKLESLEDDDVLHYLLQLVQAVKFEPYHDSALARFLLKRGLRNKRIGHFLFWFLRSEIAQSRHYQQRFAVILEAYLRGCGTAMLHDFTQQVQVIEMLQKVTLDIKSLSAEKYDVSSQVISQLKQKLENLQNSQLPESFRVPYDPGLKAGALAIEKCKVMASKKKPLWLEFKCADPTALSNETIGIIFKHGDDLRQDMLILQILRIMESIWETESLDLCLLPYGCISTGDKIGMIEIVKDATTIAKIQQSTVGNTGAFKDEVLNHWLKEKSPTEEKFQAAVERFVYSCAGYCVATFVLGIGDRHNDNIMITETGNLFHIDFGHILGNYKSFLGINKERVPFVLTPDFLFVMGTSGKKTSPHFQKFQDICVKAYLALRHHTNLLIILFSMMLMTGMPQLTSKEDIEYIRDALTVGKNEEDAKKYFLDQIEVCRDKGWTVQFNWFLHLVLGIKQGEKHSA

Experiment [2] concerns the target PI3Kδ (p110δ/p85α) Recombinant Human Protein (Homo sapiens (Human), UniProt O00329). The experiment is described as follows: PI3Kδ Scintillation Proximity Assay. It counts as biochemical. The conditions noted are these: 20 μM PIP2, 2 μM ATP, 3.4 nM PI3Kδ, 120 min, room temperature. The text has this: Example C. PI3Kδ Scintillation Proximity Assay Materials: [γ-^33P]ATP (10 mCi/mL) and Wheat Germ Agglutinin (WGA) YSi SPA Scintillation Beads was purchased from Perkin Elmer (Waltham, MA). Lipid kinase substrate, D-myo-Phosphatidylinositol 4,5-bisphosphate (PtdIns(4,5)P2)D (+)-sn-1,2-di-O-octanoylglyceryl, 3-O-phospho linked (PIP2), CAS 204858-53-7, was purchased from Echelon Biosciences (Salt Lake City, UT). PI3Kδ (p110δ/p85α) Recombinant Human Protein was purchased from Eurofins (St Charles, MO). ATP, MgCl2, DTT, EDTA, MOPS and CHAPS were purchased from Sigma Aldrich (St. Louis, MO). The kinase reaction was conducted in polystyrene 384-well Greiner Bio-one white plate from Thermo Fisher Scientific in a final volume of 25 μL. Inhibitors were first diluted serially in DMSO and added to the plate wells before the addition of other reaction components. The final concentration of DMSO in the assay was 2%. The PI3Kδ assay was carried out at room temperature in 20 mM MOPS, pH 6.7, 10 mM MgCl2, 5 mM DTT and CHAPS 0.03%. Reactions were initiated by the addition of ATP, the final reaction mixture consisted of 20 μM PIP2, 2 μM ATP, […] [γ-^33P] ATP, 3.4 nM PI3Kδ. Reactions were incubated for 120 min and terminated by the addition of 40 μL SPA beads suspended in quench buffer: 163 mM potassium phosphate pH 7.8, 20% glycerol, 25 mM EDTA. The final concentration of SPA beads is 1.0 mg/mL. After the plate sealing, plates were shaken overnight at room temperature and centrifuged at 1500 rpm for 10 min, the radioactivity of the product was determined by scintillation counting on Topcount (PerkinElmer). IC50 determination was performed by fitting the curve of percent of the solvent control activity versus the log of the inhibitor concentration using the GraphPad Prism 6.0 software.

Experiment [3] has as its system Phosphorylated Ribosomal Protein S6 (RPS6) in THP-1 cells. The experiment is described as follows: THP-1 RPS6 ELISA Assay. It counts as cell-based, Human. The conditions noted are these: Homo sapiens; THP-1 cells, serum starved, 2 hours compound, 10 nM MCP-1 for 15 minutes, Phospho-RPS6 ELISA; read-out: PI3Kγ_THP1_RPS6_ELISA IC50. As for the experimental part:
Example A. THP-1 RPS6 ELISA Assay
To measure the Phosphorylated Ribosomal Protein S6 (RPS6) in cell lysates, THP-1 cells (Human Acute Monocytic Leukemia) are purchased from ATCC (Manassas, VA) and maintained in RPMI with 10% FBS (Gibco/Life Technologies, Carlsbad, CA). For the assay, THP-1 cells are serum starved overnight in RPMI, then plated in RPMI (2×10^5 cells/well in 90 μL) into 96-well flat-bottom tissue culture treated plates (Corning, Corning, NY), in the presence or absence of a concentration range of test compounds. Covered plates are incubated for 2 hours at 37° C., 5% CO2 then treated with or without 10 nM MCP-1(MYBioSource, San Diego, CA) for 15 minutes at 37° C., 5% CO2. Plates are centrifuged at 1600 RPM and supernatants are removed. Cells are lysed in Lysis Buffer (Cell Signaling, Danvers, MA) with Protease Inhibitor (Calbiochem/EMD, Germany), PMSF (Sigma, St Louis MO), HALTS (Thermo Fisher, Rockford, IL) for 30 min on wet ice. Cell lysates are frozen at −80° C. before testing. The lysates are tested in the Human/Mouse/Rat Phospho-RPS6 ELISA (R&D Systems, Inc. Minn, MN). The plate is measured using a microplate reader (SpectraMax M5—Molecular Devices, LLC Sunnyvale, CA) set to 450 nm with a wavelength correction of 540. IC50 determination is performed by fitting the curve of inhibitor percent inhibition versus the log of the inhibitor concentration using the GraphPad Prism 5.0 software.

Sequence of PI3Kδ (p110δ/p85α) Recombinant Human Protein (O00329 whole entry): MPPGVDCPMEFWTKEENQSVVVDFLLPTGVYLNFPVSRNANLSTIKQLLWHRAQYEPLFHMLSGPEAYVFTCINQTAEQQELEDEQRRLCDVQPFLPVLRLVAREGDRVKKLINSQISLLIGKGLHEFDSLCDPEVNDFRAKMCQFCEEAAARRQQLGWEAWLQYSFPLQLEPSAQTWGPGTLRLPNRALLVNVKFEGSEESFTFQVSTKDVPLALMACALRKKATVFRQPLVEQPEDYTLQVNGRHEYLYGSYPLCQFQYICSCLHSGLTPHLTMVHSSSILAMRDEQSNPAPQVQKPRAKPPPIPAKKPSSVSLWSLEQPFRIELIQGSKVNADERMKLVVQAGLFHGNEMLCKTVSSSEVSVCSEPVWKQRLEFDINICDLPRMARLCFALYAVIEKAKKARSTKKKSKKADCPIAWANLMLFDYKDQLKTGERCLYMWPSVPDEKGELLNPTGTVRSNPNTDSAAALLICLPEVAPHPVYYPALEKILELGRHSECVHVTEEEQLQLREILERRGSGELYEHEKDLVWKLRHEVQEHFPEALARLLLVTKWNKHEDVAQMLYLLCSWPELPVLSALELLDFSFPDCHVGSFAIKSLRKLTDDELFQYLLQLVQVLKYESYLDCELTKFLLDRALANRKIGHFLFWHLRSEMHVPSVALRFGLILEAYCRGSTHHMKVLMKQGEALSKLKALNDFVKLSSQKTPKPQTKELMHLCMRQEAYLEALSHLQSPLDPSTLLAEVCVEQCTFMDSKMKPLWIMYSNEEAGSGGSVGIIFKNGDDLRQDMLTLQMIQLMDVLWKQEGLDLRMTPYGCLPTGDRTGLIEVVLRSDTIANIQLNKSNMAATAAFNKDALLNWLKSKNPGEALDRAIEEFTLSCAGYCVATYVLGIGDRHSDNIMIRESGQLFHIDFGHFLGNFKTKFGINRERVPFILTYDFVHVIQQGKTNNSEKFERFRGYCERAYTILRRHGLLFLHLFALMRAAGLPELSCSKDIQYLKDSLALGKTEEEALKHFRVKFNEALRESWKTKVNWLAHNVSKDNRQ
Sequence of PI3Kδ (p110δ/p85α) Recombinant Human Protein (P27986 whole entry partner): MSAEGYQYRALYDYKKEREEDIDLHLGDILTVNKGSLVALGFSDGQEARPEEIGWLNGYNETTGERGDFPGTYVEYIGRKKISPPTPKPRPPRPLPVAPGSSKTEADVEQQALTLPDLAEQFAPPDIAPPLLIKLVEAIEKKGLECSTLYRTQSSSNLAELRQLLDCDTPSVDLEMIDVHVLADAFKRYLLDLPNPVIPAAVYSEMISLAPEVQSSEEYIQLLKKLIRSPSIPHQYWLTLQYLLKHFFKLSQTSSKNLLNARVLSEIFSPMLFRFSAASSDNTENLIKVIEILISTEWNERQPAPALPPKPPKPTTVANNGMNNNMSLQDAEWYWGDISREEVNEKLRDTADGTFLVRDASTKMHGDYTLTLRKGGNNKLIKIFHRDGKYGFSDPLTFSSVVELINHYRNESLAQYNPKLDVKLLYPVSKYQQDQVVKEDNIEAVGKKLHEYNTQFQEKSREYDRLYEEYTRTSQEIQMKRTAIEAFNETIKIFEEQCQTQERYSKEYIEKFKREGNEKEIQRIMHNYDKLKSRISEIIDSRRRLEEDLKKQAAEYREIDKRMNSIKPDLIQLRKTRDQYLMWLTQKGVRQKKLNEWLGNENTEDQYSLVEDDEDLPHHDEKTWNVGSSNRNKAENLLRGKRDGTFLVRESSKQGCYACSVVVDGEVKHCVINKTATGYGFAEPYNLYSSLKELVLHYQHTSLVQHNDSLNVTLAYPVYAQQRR

On to `[2H]C([2H])([2H])n1nccc1-c1nc(-c2cc(C(O)(CO)C(F)(F)F)ccc2C)cnc1N` (single isomer, unassigned) [Example 1a, 2-(3-(5-Amino-6-(1-(methyl-d3)-1H-pyrazol-5-yl)pyrazin-2-yl)-4-methylphenyl)-3,3,3-trifluoropropane-1,2-diol], for which the pIC50 in experiment [1] was at least 7.00; in experiment [2], at least 7.00; in experiment [3] it was over 7.00.

On to `Cc1ncc(-c2nc(-c3cc(C(O)(CO)C(F)(F)F)ccc3C)cnc2N)o1` (single isomer, unassigned) [Example 9, 2-(3-(5-Amino-6-(2-methyloxazol-5-yl)pyrazin-2-yl)-4-methylphenyl)-3,3,3-trifluoropropane-1,2-diol], for which the pIC50 in experiment [1] was at least 7.00; in experiment [2], at least 7.00; in experiment [3] it was over 7.00.

Turning to `Cc1ccc(C(O)(CO)C(F)(F)F)cc1-c1cnc(N)c(-n2cccn2)n1` (single isomer, unassigned) [Example 12, 2-(3-(5-Amino-6-(1H-pyrazol-1-yl)pyrazin-2-yl)-4-methylphenyl)-3,3,3-trifluoropropane-1,2-diol], the pIC50 was at least 7.00 in experiment [1], at least 7.00 in experiment [2] and over 7.00 in experiment [3].

For `[2H]C([2H])([2H])c1ccc(C(O)(CO)C(F)(F)F)cc1-c1cnc(N)c(-c2cnc(C)o2)n1` (single isomer, unassigned) [Example 16, 2-(3-(5-Amino-6-(2-methyloxazol-5-yl)pyrazin-2-yl)-4-(methyl-d3)phenyl)-3,3,3-trifluoropropane-1,2-diol], the pIC50 is at least 7.00 in experiment [1], at least 7.00 in experiment [2] and over 7.00 in experiment [3].

On to `[2H]C([2H])([2H])c1ccc(C(O)(CO)C(F)(F)F)cc1-c1cnc(N)c(C(=O)NC2CCOCC2)n1` (single isomer, unassigned) [Example 17, 3-Amino-6-(2-(methyl-d3)-5-(1,1,1-trifluoro-2,3-dihydroxypropan-2-yl)phenyl)-N-(tetrahydro-2H-pyran-4-yl)pyrazine-2-carboxamide], for which the pIC50 in experiment [1] was at least 7.00; in experiment [2], at least 7.00; in experiment [3], over 7.00.

Consider `[2H]C([2H])([2H])c1ccc(C(O)(CO)C(F)F)cc1-c1cnc(N)c(C(=O)NC23CCC(O)(CC2)C3)n1` (single isomer, unassigned) [Example 18, 3-Amino-6-(5-(1,1-difluoro-2,3-dihydroxypropan-2-yl)-2-(methyl-d3)phenyl)-N-(4-hydroxybicyclo[2.2.1]heptan-1-yl)pyrazine-2-carboxamide], for which the pIC50 in experiment [1] was at least 7.00; in experiment [2] it was at least 7.00; in experiment [3], over 7.00.

As for `[2H]C([2H])([2H])c1ccc(C(O)(C(C)O)C(F)(F)F)cc1-c1cnc(N)c(C(=O)NC2CCOCC2)n1` (single isomer, unassigned) [Example 19, 3-Amino-6-(2-(methyl-d3)-5-(1,1,1-trifluoro-2,3-dihydroxybutan-2-yl)phenyl)-N-(tetrahydro-2H-pyran-4-yl)pyrazine-2-carboxamide], the pIC50 in experiment [1] was at least 7.00; in experiment [2], at least 6.30; in experiment [3], over 6.30.

As to `Cc1ccc(C(O)(CO)C(F)(F)F)cc1-c1cnc(N)c(C2CC(C(=O)N3CC(O)C3)C2)n1` (single isomer, unassigned) [Example 24, (3-(3-Amino-6-(2-methyl-5-(1,1,1-trifluoro-2,3-dihydroxypropan-2-yl)phenyl)pyrazin-2-yl)cyclobutyl)(3-hydroxyazetidin-1-yl)methanone], the pIC50 is at least 7.00 in experiment [1], at least 6.30 in experiment [2] and over 6.30 in experiment [3].

With `[2H]C([2H])([2H])c1ccc(C(O)(CO)C(F)(F)F)cc1-c1cnc(N)c(C(=O)NC2CC(C#N)C2)n1` (single isomer, unassigned) [Example 26], the pIC50 in experiment [1] is at least 7.00; in experiment [2], at least 7.00; in experiment [3], over 7.00.

As for `[2H]C([2H])([2H])c1ccc(C(O)(CO)C(F)(F)F)cc1-c1cnc(N)c(C(=O)N[C@H]2CCCC[C@@H]2O)n1` (single isomer, unassigned) [Example 27], the values for the pIC50 in experiment [1], in experiment [2] and in experiment [3] were at least 7.00, at least 6.30 and over 7.00, respectively.

In the case of `[2H]C([2H])([2H])c1ccc(C(O)(CO)C(F)(F)F)cc1-c1cnc(N)c(C(=O)NC2CCOCC2O)n1` (single isomer, unassigned) [Example 28], the pIC50 in experiment [1] was at least 7.00; in experiment [2] it was at least 6.30; in experiment [3], over 7.00.

As for `[2H]C([2H])([2H])c1ccc(C(O)(CO)C(F)(F)F)cc1-c1cnc(N)c(C(=O)N[C@H]2C[C@](O)(C(F)(F)F)C2)n1` (single isomer, unassigned) [Example 29], the results for the pIC50 in experiment [1], in experiment [2] and in experiment [3] were at least 7.00, at least 7.00 and over 7.00, respectively.

Consider `[2H]C([2H])([2H])c1ccc(C(O)(CO)C(F)(F)F)cc1-c1cnc(N)c(C(=O)N[C@]2(C)C[C@H](O)C2)n1` (single isomer, unassigned) [Example 30], for which the pIC50 in experiment [1] was at least 7.00; in experiment [2] it was at least 7.00; in experiment [3] it was over 7.00.

Take `Cc1ccc(C(O)(CO)C(F)(F)F)cc1-c1cnc(N)c(C(=O)NC23CCC(O)(CC2)C3)n1` (single isomer, unassigned) [Example 35]: the pIC50 in experiment [1] and in experiment [2] was at least 7.00 in each case.

In the case of `Cc1ccc(C(O)(CO)C(F)(F)F)cc1-c1cnc(N)c(C(=O)N[C@H](C)CO)n1` (single isomer, unassigned) [Example 36], the pIC50 in experiment [1] and in experiment [2] was at least 7.00 throughout.

As to `[2H]C([2H])([2H])c1ccc(C(O)(C(O)C(F)(F)F)C(F)(F)F)cc1-c1cnc(N)c(-c2c[nH]nc2C)n1` (stereo not drawn) [Example 20, 2-(3-(5-Amino-6-(3-methyl-1H-pyrazol-4-yl)pyrazin-2-yl)-4-(methyl-d3)phenyl)-1,1,1,4,4,4-hexafluorobutane-2,3-diol], the pIC50 in experiment [1] is at least 7.00; in experiment [2], at least 6.30.

These data come from US11926616B2, “Aminopyrazine diol compounds as PI3K-γ inhibitors” (Incyte Corporation, priority 2018, dated 2024).
